The values that follow are results of earlier work, collected in patent publication EP4732833A1, “ROPIVACAINE MICROSPHERE AND PREPARATION METHOD THEREFOR” (Bostal Drug Delivery Co., Ltd., priority 2023, dated 2025).

The conditions of this data set: background statement.

With `CCCN1CCCC[C@H]1C(=O)Nc1c(C)cccc1C` [Ropivacaine, (S)-N-(2,6-dimethylphenyl)-1-propylpiperidine-2-carboxamide], the plasma half-life is 1.8 h.
